According to US20250255876A1, “COMPOSITIONS AND METHODS FOR CANCER TREATMENT” (ARIEL SCIENTIFIC INNOVATIONS LTD., priority 2021, published 2025):
“Also recorded” adds a separate entry of the source.

Experiments:
[1] = test system: γH2AX foci in H1975 cells; assay: γH2AX foci immunofluorescence, H1975 cells; format: cell-based, human; settings: for number of γH2AX foci/cell, combined treatment: overnight
Procedure: H1975 and A549 cells were grown on glass coverslips in 12-well plates with the appropriate media, and fixed in 4% paraformaldehyde for 10 minutes at room temperature. Cells were permeabilizedin 0.5% TritonX100 in PBS×1 for 10 minutes at room temperature and then blocked in 5% BSA in 0.1% PBS×1-Tween for 1 hour at room temperature. Anti-phospho-Histone H2A.X primary antibody ([…]; 05-636-25UG) diluted 1:400 in 5% BSA in 0.1% PBS×1-Tween was added for 1 hour at room temperature. Fluorescent-dye conjugated secondary antibody was applied for 1 hour at room temperature. The coverslips were washed between each step with PBS×1. Nuclei were stained with DAPI (1:2000 dilution) at room temperature in the dark for 3 minutes. Coverslips were mounted on glass slides and imaged using an Olympus 1×81 microscope. For all treatments, cells with fewer than 80 foci were scored manually (FIG. 4B), and cells with more than 80 foci and very bright signals were scored automatically by using the “Analyze Particles” function in ImageJ (National Institutes of Health) after setting a suitable threshold.
Next, the inventors examined whether combined treatment of cisplatin with c #2 or c #3 correlates with an increase in DNA damage, which might explain the compound's sensitization effect. A549 and H1975 cell lines were exposed to combined overnight treatment with cisplatin and c #2 or c #3, and the levels of γH2AX foci were monitored. In both cell lines, a clear increase in the number of foci was observed after combined treatment, compared to cells treated with cisplatin or compounds alone (FIG. 12A).
(§1) Combined treatment of cisplatin with c #3 correlates with an increase in DNA damage. Levels of γ-H2AX foci, a marker for DNA double-strand breaks, were compared in H1975, A549 and B16F10 cell lines.

[2] = test system: γH2AX foci in B16F10 cells; assay: γH2AX foci immunofluorescence, B16F10 cells; format: cell-based, mouse
Procedure: FIGS. 15A-15B3 present micrographs and graphs showing that c #3 increases DNA damage after combined treatment. (15A). Representative figures of TH2AX in A549 cells (left panel), H1975 (middle panel) and B16F10 (right panel) with different treatments as indicated. Quantification of A549 (15B1), H1975(15B2), and B16F10 cells(15B3)′ foci/cell in each treatment. The total number of cells scored is indicated. Error bars=1 SD, P-value was calculated by two-tailed t-test. In all experiments, A549 cells were treated with 10 μM cisplatin and H1975 and B16F10 cells with 5 μM cisplatin. All cell lines were co-treated with 50 μM of c #3. Cells were co-treated for 16 h before analysis.SD=1, The P-value was calculated using a one-tailed t-test.
as §1

[3] = biological target: MAD2L2-Rev1 complex (Homo sapiens, UniProt Q9UI95); assay: Proximity ligation assay (PLA) of MAD2L2-Rev1 binding; format: cell-based
MAD2L2-Rev1 complex, sequence (Q9UI95 whole entry, one chain of several): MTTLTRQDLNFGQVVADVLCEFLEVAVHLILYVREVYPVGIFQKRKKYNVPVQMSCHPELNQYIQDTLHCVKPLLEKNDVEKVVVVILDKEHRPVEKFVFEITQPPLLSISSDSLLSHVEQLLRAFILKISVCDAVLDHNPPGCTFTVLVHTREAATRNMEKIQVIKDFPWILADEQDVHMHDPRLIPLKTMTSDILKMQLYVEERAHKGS
Procedure: FIG. 16 is a bar graph showing that c #3 reduces Rev1-MAD2L2 interaction. PLA on cells treated with 10 μM cisplatin and 100 μM of c #3 for 24 h. In each analyzed field, cells and foci were counted separately and the ratio of foci/cell was calculated. Each dot represents the average of foci/cell in one analyzed field. SD=1. The P-value was calculated by a one-tailed t-test.
#3 disturbs MAD2L2-Rev1 complex formation. Detection of MAD2L2-Rev1 binding using the proximity ligation assay (PLA), which allows endogenous detection of protein-protein interactions. To enrich for MAD2L2-Rev1 foci, cells were co-treated with 10 μM cisplatin and 100 μM c #3 for 24h. Next, the PLA reaction was performed and foci, representing the MAD2L2-Rev1 complex, were counted.

[4] = test system: B16F10 cells; assay: B16F10 subcutaneous tumor in C57BL mice, intratumoral injection; format: in vivo, mouse
Procedure: FIGS. 17A-17E are micrographs and graphs showing that C#3 prevents tumor growth. 2*106 B16F10 cells were injected to the left flank of C57BL mice. After three days different treatments, as indicated, were injected to the newly formed tumor. (17A) tumor size (mm3) was measured daily for each mouse. In the co-treatment, almost no change in tumor size was observed, in the first three days. (17B) representative images of three tumors from each treatment group. (17C) For each treatment the fold-change in the volume of each day was compared to day 0. […] (17D) The co-treated group presented less developed tumors, which comprised about 2-3% of mice weight. (17E) H&E staining of a representative tumor from each group. Number of mice for each group in this experiment: DMSO n=7, cisplatin n=10, cisplatin+c #3 n=10, c #3 n=9. SD=1. P-values were calculated by one-tailed t-test. C#3 prevents tumor growth. To test the effect of c #3 in-vivo, we used a […] mouse model of C57BL mice. B16F10 cells were injected to the mouse's left flank and allowed to form a subcutaneous tumor. Next, we injected directly to the tumor DMSO, cisplatin, cisplatin+c #3 1 mg/kg, or c #3 alone, and tumor size was measured each day, up to 6 days. […] DNA damage burden in these fast-growing tumors is high, and TLS inhibition using c #3 prevents repair and enhances cell death. […]

[5] = H1975, 5 μM cisplatin + 50 μM compound

Row | Structure (SMILES) | number of γH2AX foci/cell, combined treatment [1, 5] | increase in γ-H2AX foci/cell in co-treated cells ([1]; H1975, 5 μM cisplatin + 50 μM c #3, 16 h) [fold] | cells with more than 80 foci or very bright signal, combined treatment [1, 5] | γ-H2AX signal, c #3 alone ([1]; H1975, c #3 alone) | increase in γ-H2AX foci/cell in co-treated cells ([2]; B16F10, 5 μM cisplatin + 50 μM c #3, 16 h) [fold] | γ-H2AX signal, c #3 alone ([2]; B16F10, c #3 alone) | ratio of MAD2L2-Rev1 PLA foci per cell, co-treatment ([3]; 10 μM cisplatin + 100 μM c #3, 24 h, compared to cisplatin alone) | MAD2L2-Rev1 complex formation (PLA), c #3 alone ([3]; c #3 alone compared to DMSO) | tumor growth (tumor volume, fold-change), co-treatment ([4]; cisplatin 1 mg/kg + c #3 1 mg/kg injected into the tumor, listed as c #3) | tumor histopathology (H&E), co-treatment ([4]; cisplatin + c #3 co-treated, two tumors from each group)
1 | CNc1nc(N2CCCCC2)nc(-n2cnc(SCC(N)=O)n2)n1 [Compound 2] | significant increase in the number of γH2AX foci/cell | – | – | – | – | – | – | – | – | –
2 | Cc1oc(-c2ccco2)nc1CC(=O)N[C@@H](C(=O)O)c1ccccc1 [Compound 3] | significant increase in the number of γH2AX foci/cell | 2 | significantly more abundant | no effect on the γ-H2AX signal | 2 | no effect on the γ-H2AX signal | reduced ratio of foci per cell | no effect on complex formation when DNA-damage is not induced | prevented tumor growth in the first three days; also recorded: significant growth inhibition when compared to all treatments | severe necrosis
